Test results as given in patent US10272083B2, “Methods of treating chronic lymphocytic leukemia and small lymphocytic leukemia using a BTK inhibitor” (Acerta Pharma B.V., priority 2014, dated 2019).
“Also recorded” adds a separate entry of the source.

Columns and labels:
[1] = tested on: human platelet-mediated thrombus formation; assay: In vivo human thrombus formation, laser injury, VWF HA1 mice model; settings: platelets preincubated with BTK inhibitor (0.1, 0.5 or 1 μM)
[2] = tested on: regulatory T cell (Treg) development; assay: CD4+ T cell skewing culture, Treg; type: cell-based; settings: FIG. 25
Description: (§1) Enriched CD4^+ T cells are plated on 24-well culture dishes that have been precoated 2 hr with 250 μL anti-TCRP3 (0.5 μg/mL) plus anti-CD28 (5 μg/mL) at 37° C. in PBS. The cells are then supplemented with media containing BTK inhibitors along with the skewing cytokines as indicated in the following. The Th17 and Treg cultures are grown for 4 days before analysis. The cells are maintained for an additional 3 days with skewing cytokines (Th17; 20 ng/mL IL-6, 0.5 ng/mL TGF-β, […] Treg; 0.5 ng/mL TGF-β, 5 μg/mL IL-4, 5 μg/mL IFN-γ) and are supplemented with IL2 as a growth factor.

[3] = Study of respiratory function in rats; type: in vivo; settings: doses through 300 mg/kg
Description: (§2) Formula (II) was well tolerated in standard in vivo Good Laboratory Practices (GLP) studies of pharmacologic safety.

[4] = tested on: canine spontaneous B-cell lymphoma; assay: Study of canine spontaneous B-cell lymphoma; type: in vivo, dogs; settings: 2.5 mg/kg once daily oral
Description: Formula (II) is currently being evaluated in an ongoing study of canine spontaneous B-cell lymphoma. […] To date, partial remission (PR), per Veterinary Cooperative Oncology Group criteria for assessment of response in peripheral nodal lymphoma, has been observed in 2 of 6 dogs. D. M. Vali, et al., Vet. Comp. Oncol. 8, 28-37 (2010). […] L. A. Honigberg, et al., Proc. Nat. Acad. Sci. USA, 107, 13075-13080 (2010).

[5] = tested on: 80 known pharmacologic targets such as G-protein-coupled receptors, nuclear receptors, proteases, and ion channels; assay: Binding assays with 80 known pharmacologic targets; settings: screened at 10 μM
[6] = Cardiovascular function study in awake telemeterized beagle dogs; type: in vivo; settings: male beagle dogs, single doses through 30 mg/kg
Description: as §2

[7] = Glutathione binding and depletion in vitro
Th17 cells = assay: CD4+ T cell skewing culture, Th17; type: cell-based; settings: FIG. 24
Description: as §1

[8] = tested on: platelet collagen receptor glycoprotein VI (GPVI); assay: GPVI (convulxin-induced) platelet aggregation; type: cell-based, human; settings: for inhibition of GPVI platelet aggregation: FIG. 16 and FIG. 17
Description: GPVI platelet aggregation was measured for Formula (II) and ibrutinib. Blood was obtained from untreated humans, and platelets were purified from […] by centrifugation. Cells were resuspended to a final concentration of 350,000/μL in buffer containing 145 mmol/L NaCl, 10 mmol/L HEPES, 0.5 mmol/L Na2HPO4, 5 mmol/L KCl, 2 mmol/L MgCl2, 1 mmol/L CaCl2, and 0.1% glucose, at pH 7.4. Stock solutions of […] were prepared on the day of experimentation and added to platelet suspensions 5 minutes (37° C., 1200 rpm) before the induction of aggregation. Aggregation was assessed with a Chronolog Lumi-Aggregometer (model 540 VS; Chronolog, Havertown, Pa.) and permitted to proceed for 6 minutes after the addition of agonist. The results are reported as maximum percent change in light transmittance from baseline with platelet buffer used as a reference.
In FIG. 17, the results of CVX-induced (250 ng/mL) human platelet aggregation results before and 15 minutes after administration of the BTK inhibitors to 6 healthy individuals are shown.

[9] = tested on: BCR activation markers CD69 and CD86; assay: In vivo potency: IgM-stimulated BCR activation markers by flow cytometry; settings: mice gavaged, 3 h post-dose, BCR stimulated with IgM
Description: Mice were gavaged at increasing drug concentration and sacrificed at one time point (3 h post-dose). BCR is stimulated with IgM and the expression of activation markers CD69 and CD86 are monitored by flow cytometry to determine EC50's.
CD86 and CD69 are cell surface proteins that are BCR activation markers. […] BCR was stimulated with IgM and the expression of activation marker CD69 and CD86 are monitored by flow cytometry and to determine EC50 values.

[10] = GLP functional observation battery in rats; type: in vivo; settings: doses through 300 mg/kg
Description: as §2

NK cells = assay: Antibody-dependent NK cell degranulation, CD107a flow cytometry; type: cell-based, human; settings: rituximab-coated DHL-4 target cells
CYP3A4 = CYP3A4 (Homo sapiens, UniProt P08684); assay: In vitro loss of parent drug as catalyzed by CYPs; type: in vitro ADME
[11] = Preliminary evaluation of metabolism in plasma, bile and urine; type: in vivo; settings: bile, urine of rats, dogs, monkeys
[12] = tested on: NK cells and monocytic MDSC subsets; assay: Flow cytometry of peripheral blood cell subsets in CLL patients; type: in vivo, human; settings: patients with falling ALC counts, 28 days of dosing
Description: PBMCs were stained with monoclonal antibodies conjugated to fluorescent tags (flourochromes) to identify cell subsets via flow cytometry. Non-viable cells were excluded from the analysis using the dye 7-aminoactinomycin D (7-AAD). To produce the metric of percent change, the following steps were taken. First, each cell subset was defined by hierarchical flow cytometry gating. Then, the change in frequency (between day 1 and day 28) was calculated for each cell subset. MDSC subsets were measured as a % of all myeloid cells. T cell subsets were measured as a % of all CD3^+ cells, and NK cells were measured as a % of all live CD45^+ cells. […] A cycle is 28 days. A trend is observed wherein patients with decreasing ALC % had increasing MDSC (monocytic) %. This may include patients who had quickly resolving lymphocytosis and those with no initial lymphocytosis. […] This may include patients who had quickly resolving lymphocytosis and those having no initial lymphocytosis. The effects in FIG. 9 to FIG. 12 are observed in multiple cohorts, at doses including 100 mg BID, 200 mg QD, and 400 mg QD. In FIG. 13 and FIG. 14, the effects on NK cells and MDSC cells are compared to a number of other markers versus % change in ALC at C1D28 and C2D28. These other markers include CD4+ T cells, CD8+ T cells, CD4+/CD8+ T cell ratio, NK-T cells, PD-1+CD4+ T cells, and PD-1+CD8+ T cells. […]

EGFR phosphorylation = assay: In vitro EGFR phosphorylation in A431 cells; type: cell-based; settings: 10 μM, A431 human epidermoid cancer cell line
CYP enzymes = assay: Nonclinical CYP interaction studies; type: in vitro ADME
[13] = In vitro metabolism in hepatocytes with 14C-labeled compound; type: in vitro ADME, mouse, rat, dog, rabbit, monkey, and human
[14] = tested on: canine spontaneous B-cell lymphoma; settings: out of 8 dogs treated; Honigberg et al. 2010; cited from earlier work
[15] = within the tested dose range; cited from earlier work
Raji cells = assay: Rituximab ADCC 51Cr release, healthy donor NK cells vs Raji cells; type: cell-based, human; settings: 1 μM, E:T 25:1

Sequence of CYP3A4 (P08684 whole entry): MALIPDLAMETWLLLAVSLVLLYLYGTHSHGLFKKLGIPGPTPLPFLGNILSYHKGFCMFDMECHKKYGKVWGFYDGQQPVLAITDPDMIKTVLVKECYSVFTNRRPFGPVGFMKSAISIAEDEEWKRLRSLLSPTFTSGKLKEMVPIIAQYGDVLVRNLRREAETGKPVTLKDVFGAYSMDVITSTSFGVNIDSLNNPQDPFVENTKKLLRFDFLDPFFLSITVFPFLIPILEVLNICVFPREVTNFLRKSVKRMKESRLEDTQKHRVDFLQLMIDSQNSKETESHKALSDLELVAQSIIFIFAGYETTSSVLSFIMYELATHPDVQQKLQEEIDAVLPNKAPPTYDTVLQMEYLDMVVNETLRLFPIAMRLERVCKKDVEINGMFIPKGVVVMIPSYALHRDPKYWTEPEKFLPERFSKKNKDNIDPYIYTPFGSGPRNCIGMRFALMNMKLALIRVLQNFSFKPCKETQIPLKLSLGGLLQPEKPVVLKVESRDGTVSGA

C=CC(=O)Nc1cccc(Nc2nc(Nc3ccc(OCCOC)cc3)ncc2F)c1 [CC-292, N-(3-((5-fluoro-2-((4-(2-methoxyethoxy)phenyl)amino)pyrimidin-4-yl)amino)phenyl)acrylamide, reference compound]
effect on human platelet-mediated thrombus formation [1]: effect similar to ibrutinib

CC#CC(=O)N1CCC[C@H]1c1nc(-c2ccc(C(=O)Nc3ccccn3)cc2)c2c(N)nccn12 [Formula (II), (S)-4-(8-amino-3-(1-(but-2-ynoyl)pyrrolidin-2-yl)imidazo[1,5-a]pyrazin-1-yl)-N-(pyridin-2-yl)benzamide]
effect on Treg development [2]: no adverse effects; also recorded: no effect | respiratory function [3]: no treatment-related adverse effects | drug-related adverse events [4]: No drug-related adverse events | partial remission (PR) ([4]; average 22 days, preliminary): 2 of 6 | Grade of Diarrhea (relapsed/refractory CLL; All (N = 44)): 1 | Grade of Headache (relapsed/refractory CLL; All (N = 44)): ½ | Grade of Increased tendency to bruise (relapsed/refractory CLL; All (N = 44)): 1 | Grade of Petechiae (relapsed/refractory CLL; All (N = 44)): 1 | Treatment-related adverse event: Diarrhea (relapsed/refractory CLL; All (N = 44)): 4 (9) n (%) | Treatment-related adverse event: Headache (relapsed/refractory CLL; All (N = 44)): 7 (16) n (%) | Treatment-related adverse event: Increased tendency to bruise (relapsed/refractory CLL; All (N = 44)): 6 (14) n (%) | Treatment-related adverse event: Petechiae (relapsed/refractory CLL; All (N = 44)): 3 (7) n (%) | progression-free survival (PFS) in comparison to ibrutinib (relapsed/refractory CLL; Kaplan-Meier, Log-Rank p-value 0.0206): An improvement in survival and a reduction in risk | MTD (relapsed/refractory CLL; relapsed/refractory CLL): not reached | dose-limiting toxicities (DLTs) (relapsed/refractory CLL; relapsed/refractory CLL): No DLTs were observed | grade of AEs observed (relapsed/refractory CLL; relapsed/refractory CLL): only grade 1 AEs were observed | lymphocytosis (relapsed/refractory CLL; relapsed/refractory CLL): A lack of lymphocytosis | treatment-related serious adverse events (SAEs) (relapsed/refractory CLL; relapsed/refractory CLL): No treatment-related serious adverse events (SAEs) were observed | progression in patients with 17p deletion (relapsed/refractory CLL; to date): no 17p patients have progressed | activity in binding screen of 80 targets [5]: significant activity only against the A3 adenosine receptor | body temperature, cardiovascular, or ECG (including QT interval) parameters [6]: no meaningful changes | glutathione binding / depletion [7]: binds to glutathione but does not deplete glutathione | effect on Th17 cells (Th17 cells): no adverse effect | inhibition of GPVI platelet aggregation [8]: does not | IC50 ([8]; Homo sapiens, Platelet, FIG. 16): 1150 nM | effect on human platelet-mediated thrombus formation [1]: no significant effect | in vivo potency at inhibiting expression of activation markers CD69 and CD86 [9]: more potent at inhibiting expression of activation makers than ibrutinib | neurobehavioral effects or body temperature [10]: no adverse effects | reduction of rituximab-stimulated NK cell degranulation (NK cells): < 2% | CYP responsible for metabolism (CYP3A4): metabolized by CYP3A4 | metabolic processes [11]: oxidation, glutathione binding, and hydrolysis | frequency of NK cells and monocytic MDSC subsets in peripheral blood [12]: increase in frequency in the peripheral blood | inhibition of in vitro EGFR phosphorylation (EGFR phosphorylation): no inhibition | drug-drug interaction potential via CYP enzymes (CYP enzymes): very unlikely to cause clinical drug-drug interactions | unique human metabolite ([13]; hepatocytes): No unique human metabolite was identified | metabolites in hepatocytes ([13]; mouse, rat, dog, rabbit, monkey, human hepatocytes): two mono-oxidized metabolites and a glutathione conjugate

C=CC(=O)N1CCC[C@@H](n2nc(-c3ccc(Oc4ccccc4)cc3)c3c(N)ncnc32)C1 [Ibrutinib, 1-[(3R)-3-[4-amino-3-(4-phenoxyphenyl)-1H-pyrazolo[3,4-d]pyrimidin-1-yl]piperidin-1-yl]prop-2-en-1-one, reference compound]
effect on Treg development [2]: increase in Treg development; also recorded: strongly increases Treg development | dogs with PR [14]: 3 dogs | effect on Th17 cells (Th17 cells): profound inhibition of Th17 cells; also recorded: strongly inhibits Th17 cells | inhibition of GPVI platelet aggregation [8]: significantly inhibits GPVI platelet aggregation | maximum tolerated dose (MTD) [15]: No maximum tolerated dose (MTD) was apparent | effect on rituximab-mediated ADCC against Raji cells (Raji cells): strongly inhibited
